From patent US12459912B2 (priority 2020, dated 2025)
Where “and” joins values, the source holds several entries; their conditions need not be identical. Identical values can stand only once.

Assays:
[1] = biological target: 5-Hydroxytryptamine (Serotonin) Receptor 1B (5-HT1B) (Homo sapiens, UniProt P28222); assay: 5-HT1B/cAMP; format: cell-based; conditions: EC50 (μM)
[2] = biological target: 5-Hydroxytryptamine (Serotonin) Receptor 2A (5-HT2A) (Homo sapiens, UniProt P28223); assay: 5-HT2A/Calcium Flux; format: cell-based; conditions: EC50 (μM)
[3] = biological target: 5-Hydroxytryptamine (Serotonin) Receptor 2B (5-HT2B) (Homo sapiens, UniProt P41595); assay: 5-HT2B/Calcium Flux; format: cell-based; conditions: EC50 (μM)
[4] = biological target: 5-Hydroxytryptamine (Serotonin) Receptor 1A (5-HT1A) (Homo sapiens, UniProt P08908); assay: 5-HT1A/cAMP; format: cell-based
[5] = biological target: ADRA1A (Adrenergic Receptor on α1A) (Homo sapiens, UniProt P35348); assay: ADRA1A/Calcium Flux; format: cell-based; conditions: EC50 (μM)
[6] = biological target: ADRA2A (Adrenergic Receptor on α2A) (Homo sapiens, UniProt P08913); assay: ADRA2A/cAMP; format: cell-based
[7] = biological target: ADRB2 (Adrenergic Receptor β2) (Homo sapiens, UniProt P07550); assay: ADRB2/cAMP; format: cell-based; conditions: EC50 (μM)
[8] = biological target: ADORA2A (Adenosine Receptor A2A) (Homo sapiens, UniProt P29274); assay: ADORA2A/Calcium Flux; format: cell-based
[9] = biological target: ADRB1 (Adrenergic Receptor β1) (Homo sapiens, UniProt P08588); assay: ADRB1/cAMP; format: cell-based
[10] = biological target: AVPR1A (Arginine Vasopressin Receptor 1A) (Homo sapiens, UniProt P37288); assay: AVPR1A/Calcium Flux; format: cell-based
[11] = biological target: CHRM1 (Muscarinic acetylcholine Receptor M1) (Homo sapiens, UniProt P11229); assay: cell-based
[12] = biological target: CHRM3 (Muscarinic acetylcholine Receptor M3) (Homo sapiens, UniProt P20309); assay: cell-based
[13] = biological target: CNR1 (Cannabinoid Receptor 1) (Homo sapiens, UniProt P21554); assay: CNR1/cAMP; format: cell-based
[14] = biological target: CNR2 (Cannabinoid Receptor 2) (Homo sapiens, UniProt P34972); assay: CNR2/cAMP; format: cell-based
[15] = biological target: DRD1 (Dopamine Receptor D1) (Homo sapiens, UniProt P21728); assay: DRD1/cAMP; format: cell-based
[16] = biological target: DRD2S (Dopamine Receptor D2) (Homo sapiens, UniProt P14416); assay: DRD2S/cAMP; format: cell-based
[17] = biological target: EDNRA (Endothelin Receptor Type A) (Homo sapiens, UniProt P25101); assay: EDNRA/Calcium Flux; format: cell-based
[18] = biological target: HRH2 (Histamine Receptor H2) (Homo sapiens, UniProt P25021); assay: HRH2/cAMP; format: cell-based
[19] = biological target: OPRD1 (Opioid Receptor Delta 1) (Homo sapiens, UniProt P41143); assay: OPRD1/cAMP; format: cell-based
[20] = biological target: OPRK1 (Opioid Receptor Kappa 1) (Homo sapiens, UniProt P41145); assay: OPRK1/cAMP; format: cell-based
[21] = biological target: T1, nAChR(a4/b2) (Nicotinic acetylcholine Receptor α4 β2) (Homo sapiens, UniProt P17787+P43681); assay: cell-based; conditions: EC50 (μM)
T1 construct: expressed in transfected cells

[22] = test system: T2, GABAA (Gamma-aminobutyric acid Receptor A); format: cell-based
T2 construct: other: opener

hERG = biological target: T3, hERG (Homo sapiens, UniProt Q12809); assay: hERG/Ion Channel; format: cell-based
T3 construct: expressed in transfected cells

KvLQT1/minK = biological target: T4, KvLQT1/minK (Homo sapiens, UniProt P51787); assay: KvLQT1/minK/Ion Channel; format: cell-based
T4 construct: expressed in transfected cells

[23] = biological target: T5, NMDAR (1A/2B) (N-methyl-D-aspartate (NMDA) Glutamate Receptor 1A/2B) (Homo sapiens, UniProt Q05586+Q13224); assay: NMDAR (1A/2B)/Ion Channel; format: cell-based
T5 construct: expressed in transfected cells

[24] = biological target: T6, DAT (Dopamine transporter) (Homo sapiens, UniProt Q01959); assay: DAT/Transporter (fluorescent substrate uptake); format: cell-based
T6 construct: expressed in transfected cells

[25] = biological target: T7, SERT (Serotonin transporter) (Homo sapiens, UniProt P31645); assay: cell-based
T7 construct: expressed in transfected cells

[26] = biological target: T8, MAOA (Monoamine oxidase type A) (Homo sapiens, UniProt P21397); assay: MAOA/Enzymatic; format: biochemical
T8 construct: purchased Sigma

[27] = biological target: T9, PDE3A (cGMP-inhibited cyclic nucleotide phosphodiesterase 3A) (Homo sapiens, UniProt Q14432); assay: PDE3A/Enzymatic; format: biochemical
T9 construct: purchased Signal Chem

[28] = biological target: T10, PDE4D2 (cAMP-specific 3′,5′-cyclic phospho-diesterase) (Homo sapiens, UniProt Q08499); assay: PDE4D2/Enzymatic; format: biochemical
T10 construct: purchased Signal Chem

[29] = biological target: T11, ROCK1 (Rho Associated Coiled-Coil Containing Protein Kinase 1) (Homo sapiens, UniProt Q13464); assay: ROCK1/Binding (KINOMEscan)
T11 construct: made in house; host or cells: E. coli BL21-derived host (T7 phage) or HEK-293

[30] = biological target: T12, INSR (Insulin Receptor (tyrosine kinase)) (Homo sapiens, UniProt P06213); assay: INSR/Binding (KINOMEscan)
T12 construct: made in house; host or cells: E. coli BL21-derived host (T7 phage) or HEK-293

[31] = biological target: GR (Nuclear Hormone Glucocorticoid Receptor) (Homo sapiens, UniProt P04150); assay: GR/NHR Protein Interaction; format: cell-based
[32] = biological target: T13, VEGFR2 (Vascular endothelial growth factor receptor 2 (KDR tyrosine kinase)) (Homo sapiens, UniProt P35968); assay: biochemical; format: binding
T13 construct: made in house; host or cells: E. coli BL21-derived host (T7 phage) or HEK-293

[33] = biological target: NAV1.5 (tetrodotoxin-resistant voltage-gated sodium channel) (Homo sapiens, UniProt Q14524); assay: cell-based

Measured: EC50

CNC(C)Cc1ccc2ccsc2c1 (stereo not shown) [drawing 522]
3.43 µM: [5]; antagonist
0.945 µM: [26]
0.072 µM: [3]; antagonist
0.959 µM: [2]; agonist
0.024 µM: [1]; agonist
5.79 µM: [7]; antagonist
1.72 µM: [2]; antagonist
> 10 µM: [1]; antagonist | [3]; agonist | [4] | [5]; agonist | [6] | [7]; agonist | [8] | [9] | [10] | [11] | [12] | [13] | [14] | [15] | [16] | [17] | [18] | [19] | [20] | [22] | hERG | KvLQT1/minK | [23] | [25] | [27] | [28] | [29] | [30] | [31] | [32] | [33]
0.32 µM: [24]
> 10 µM and 4.44 µM: [21]
